# Results taken from patent US5644059A, “1,4-dihydropyridine derivatives and methods of producing the same” (Fujirebio Inc., priority 1990, dated 1997).
# Test system: platelet aggregation
# Assay: Test for platelet aggregation-inhibiting activity of rabbit (PAF-induced aggregation in platelet rich plasma)
# Format: cell-based
# Design: dose or concentration left out as unconfirmed
# Details: rabbit PRP, 37°C, 10 minutes incubation, aggregation by PAF (10 μl); test compound concentration not given
# Experimental: 2. Test for platelet aggregation-inhibiting activity of rabit
# A blood of a rabbit (Japanese white; male; 2.5-3.0 kg) was exsanguinated from a carotid of the rabbit, and nine parts of the blood were mixed with one part of a 3.8% aqueous solution of sodium citrate. The mixture was centrifuged at 1100 rpm at 20°C. for 15 minutes. The upper layer is a platelet rich plasma (PRP), and the lower layer was centrifuged at 2500 rpm at 20° C. for 10 minutes, so that a platelet poor plasma (PPP) was obtained.
# 10 μl of a solution of the compound to be tested was added to 200 μl of PRP, and the mixture was subjected to incubation at 37°C. for 10 minutes. To the mixture was added 10 μl of a platelet activating factor (PAF)(10 mg/ml). The agglutination was measured by Agricometer (NKK, PAT-4A).
row,SMILES,Platelet Aggregation-Inhibiting Activity [%]
1,"CCOC(=O)C1=C(C)NC(C)=C(C(=O)NCC(=O)OC(C)(C)C)C1c1cccc([N+](=O)[O-])c1 (stereo not shown) [Example 36, t-butyl 2-[N-[1,4-dihydro-2,6-dimethyl-5-ethoxycarbonyl-4-(3-nitrophenyl)pyridine-3-carbonyl]-amino]acetate]",100
2,"COC(=O)C1=C(C)NC(C)=C(C(=O)N[C@H](C(=O)OC(C)(C)C)C(C)C)C1c1cccc([N+](=O)[O-])c1 (single isomer, unassigned) [1 (Compound a)]",42.8
3,"COC(=O)C1=C(C)NC(c2ccccc2)=C(C(=O)N[C@H](C(=O)OC(C)(C)C)C(C)C)C1c1cccc([N+](=O)[O-])c1 (stereo partly shown) [Example 71, t-butyl 2-[N-[1,4-dihydro-6-methyl-5-methoxycarbonyl-4-(3-nitrophenyl)-2-phenylpyridine-3-carbonyl]amino]-3-methylbutylate]",100
4,"COC(=O)C1=C(C)NC(C)=C(C(=O)N[C@H](C(=O)OC(C)(C)C)C(C)C)C1c1ccccc1[N+](=O)[O-] (single isomer, unassigned) [27 (Compound a)]",33.3
5,"COC(=O)C1=C(C)NC(C)=C(C(=O)NCC(=O)N2CCCC2)C1c1cccc([N+](=O)[O-])c1 (stereo not shown) [Example 57, methyl 1,4-dihydro-2,6-dimethyl-4-(3-nitrophenyl)-5-[N-[(pyrrolidin-1-yl)carbonylmethyl]carbamoyl]pyridine-3-carboxylate]",64.5
6,"CC1=C(C(=O)NCC(=O)OC(C)(C)C)C(c2cccc([N+](=O)[O-])c2)C(C(=O)OC(C)C)=C(C)N1 (stereo not shown) [Example 37, t-butyl 2-[N-[1,4-dihydro-2,6-dimethyl-5-isopropyloxycarbonyl-4-(3-nitrophenyl)pyridine-3-carbonyl]amino]acetate]",100
7,"COC(=O)C1=C(C)NC(C)=C(C(=O)NCC(=O)OC(C)(C)C)C1c1ccccc1C#N (stereo not shown) [Example 33, t-butyl 2-[N-[1,4-dihydro-2,6-dimethyl-5-methoxycarbonyl-4-(2-cyanophenyl)pyridine-3-carbonyl]-amino]acetate]",94.2
8,"CCOC(=O)c1ccccc1NC(=O)C1=C(C)NC(C)=C(C(=O)OC)C1c1cccc([N+](=O)[O-])c1 (stereo not shown) [Example 69, ethyl 2-[N-[1,4-dihydro-2,6-dimethy1-5-methoxycarbonyl-4-(3-nitrophenyl)pyridine-3-carbonyl]amino]-benzoate]",23.3
9,"COC(=O)C1=C(C)NC(C)=C(C(=O)NCC(=O)OC(C)(C)C)C1c1cccc([N+](=O)[O-])c1 (stereo not shown) [Example 3, t-butyl 2-[N-[1,4-dihydro-2,6-dimethyl-5-methoxycarbonyl-4-(3-nitrophenyl)pyridine-3-carbonyl]amino]acetate]",100
10,"COC(=O)C1=C(C)NC(C)=C(C(=O)N[C@@H](C)C(=O)OC(C)(C)C)C1c1ccccc1Cl (stereo partly drawn) [Example 9, t-butyl 2-(S)-[N-[1,4-dihydro-2,6-dimethyl-5-methoxycarbonyl-4-(2-chlorophenyl)pyridine-3-carbonyl]amino]propionate]",29.8
11,"COC(=O)C1=C(C)NC(C)=C(C(=O)NCC(=O)N[C@H](C(=O)OC(C)(C)C)C(C)C)C1c1cccc([N+](=O)[O-])c1 (stereo partly drawn) [Example 66, t-butyl 2-(S)-[N-[[N-[1,4-dihydro-2,6-dimethyl-5-methoxycarbonyl-4-(3-nitrophenyl)pyridine-3-carbonyl]amino]acetyl]amino]-3-methylbutylate]",100
12,"CCOC(=O)CCNC(=O)C1=C(C)NC(C)=C(C(=O)OC)C1c1cccc([N+](=O)[O-])c1 (stereo not shown) [Example 64, ethyl 3-[N-[1,4-dihydro-2,6-dimethyl-5-methoxycarbonyl-4-(3-nitrophenyl)pyridine-3-carbonyl]amino]-propionate]",52.6
13,"CCOC(=O)C(C)(C)NC(=O)C1=C(C)NC(C)=C(C(=O)OC)C1c1cccc([N+](=O)[O-])c1 (stereo not shown) [Example 68, ethyl 2-[N-[1,4-dihydro-2,6-dimethyl-5-methoxycarbonyl-4-(3-nitrophenyl)pyridine-3-carbonyl]amino]isobutyrate]",34.1
14,"COC(=O)C1=C(C)NC(C)=C(C(=O)N[C@H](C(=O)OC(C)(C)C)C(C)C)C1c1ccccc1Cl (single isomer, unassigned) [7 (Compound a)]",54.1
15,"CCOC(=O)C1=C(C)NC(C)=C(C(=O)N[C@H](C(=O)OC(C)(C)C)C(C)C)C1c1cccc([N+](=O)[O-])c1 (stereo partly drawn) [Example 48, t-butyl 2-(S)-[N-[1,4-dihydro-2,6-dimethyl-5-ethoxycarbonyl-4-(3-nitrophenyl)pyridine-3-carbonyl]amino]-3-methylbutylate]",41.5
16,"CCOC(=O)CNC(=O)C1=C(C)NC(C)=C(C(=O)OC)C1c1cccc([N+](=O)[O-])c1 (stereo not shown) [Example 62, ethyl 2-[N-[1,4-dihydro-2,6-dimethyl-5-methoxycarbonyl-4-(3-nitropheny1)pyridine-3-carbonyl]amino]-acetate]",64.3
17,"COCCOC(=O)C1=C(C)NC(C)=C(C(=O)NCC(=O)OC(C)(C)C)C1c1cccc([N+](=O)[O-])c1 (stereo not shown) [Example 38, t-butyl 2-[N-[1,4-dihydro-2,6-dimethyl-5-(2-methoxyethyloxycarbonyl)-4-(3-nitrophenyl)pyridine-3-carbonyl]amino]acetate]",100
18,"COCCOC(=O)C1=C(C)NC(C)=C(C(=O)N[C@H](C(=O)OC(C)(C)C)C(C)C)C1c1cccc([N+](=O)[O-])c1 (single isomer, unassigned) [50 (Compound a)]",23.5
19,"COC(=O)C1=C(C)NC(C)=C(C(=O)N[C@H](C(=O)OC(C)(C)C)C(C)C)C1c1cccc(C#N)c1 (single isomer, unassigned) [22 (Compound a)]",20.2
20,COCCOC(=O)CNC(=O)C1=C(C)NC(C)=C(C(=O)OC)C1c1cccc([N+](=O)[O-])c1 (stereo not shown) [Example 60],47.2
21,"COC(=O)C1=C(C)NC(C)=C(C(=O)N[C@H](C(=O)OC(C)(C)C)C(C)C)C1c1cccc(F)c1 (single isomer, unassigned) [19 (Compound a)]",35.4
22,CCOC(=O)C1=C(c2ccccc2)NC(C)=C(C(=O)NCC(=O)OC(C)(C)C)C1c1cccc([N+](=O)[O-])c1 (stereo not shown) [Example 76],46.3
23,"COC(=O)C1=C(C)NC(C)=C(C(=O)NCC(=O)OC(C)(C)C)C1c1cccc(Cl)c1 (stereo not shown) [Example 32, t-butyl 2-[N-[1,4-dihydro-2,6-dimethyl-5-methoxycarbonyl-4-(3-chlorophenyl)pyridine-3-carbonyl]-amino]acetate]",100
24,CC1=C(C(=O)N[C@H](C(=O)OC(C)(C)C)C(C)C)C(c2cccc([N+](=O)[O-])c2)C(C(=O)OC(C)C)=C(C)N1 (stereo partly shown) [Example 49],38.9
25,CCOC(=O)CN(C)C(=O)C1=C(C)NC(C)=C(C(=O)OC)C1c1cccc([N+](=O)[O-])c1 (stereo not shown) [Example 65],42.7
26,"COC(=O)C1=C(C)NC(C)=C(C(=O)NCC(=O)OC(C)(C)C)C1c1cccc(C#N)c1 (stereo not shown) [Example 34, t-butyl 2-[N-[1,4-dihydro-2,6-dimethyl-5-methoxycarbonyl-4-(3-cyanophenyl)pyridine-3-carbonyl]-amino]acetate]",100
27,"COC(=O)C1=C(C)NC(C)=C(C(=O)N[C@H](C(=O)OC(C)(C)C)C(C)C)C1c1ccccc1F (single isomer, unassigned) [13 (Compound a)]",37.7
28,"COC(=O)C1=C(C)NC(C)=C(C(=O)NCC(=O)OC(C)(C)C)C1c1ccccc1C (stereo not shown) [Example 47, t-butyl 2-[N-[1,4-dihydro-2,6-dimethyl-5-methoxycarbonyl-4-(2-methylphenyl)pyridine-3-carbonyl]-amino]acetate]",32.7
